Source: patent US20250222045A1, “BIFIDOBACTERIUM LONGUM SUBSP. INFANTIS, MICROBIAL AGENT AND USE THEREOF” (GUANGZHOU JIYAN COSMETICS TECHNOLOGY CO., LTD., priority 2024, published 2025)

Experiments:
MMP-1 = experiment: UVA-irradiated fibroblasts, special dosing (UVA continuous irradiation): MMP1 ELISA; format: cell-based; conditions: Filtrate 1%, Lysate 0.5%, Filtrate + lysate 0.3125%, Pro-xylane 10 mg/mL, Edelweiss 0.625%
Experimental: (§1) Cell inoculation: After resuscitation of cells, when a plating rate reached about 60%, the cells were inoculated in 6-well plates, and incubated overnight in the CO2 incubator (37° C., 5% CO2).
Dosing: When the plating rate of the cells in the 6-well plates reached about 50%˜60%, UVA irradiation of 30 J/cm^2 was performed on groups with UVA irradiation, and after the irradiation was finished, dosing was performed for the groups respectively, with each group in triplicate. The blank control group and the negative control group were added with 2 mL of the culture solution per well, the positive control group was added with 2 mL of the TGF-β1-containing culture solution per well, and the sample group was added with 2 mL of the test sample-containing culture solution at a corresponding concentration per well. After the dosing was completed, the 6-well plates were cultured in the CO2 incubator (37° C., 5% CO2) […] for 24 h. The above operations were repeated for 3 times. […]
(§2) Statistical analysis of results: GraphPad Prism Program software was applied for plotting, and results were expressed as Mean±SD. Comparison between the groups was statistically analyzed using t-test. […]

NF-κB gene = experiment: UVA-irradiated fibroblasts, special dosing: NF-κB PCR; format: cell-based; conditions: Filtrate 0.1%, Lysate 0.5%, Filtrate + lysate 0.3125%, Pro-xylane 10 mg/mL
Experimental: as §1
(§3) Dosing: When the plating rate of the cells in the 6-well plates reached about 50%˜60%, UVA irradiation of 30 J/cm^2 was performed on groups with UVA irradiation, and after the irradiation was finished, dosing was performed for the groups respectively, with each group in triplicate. […]
(§4) Detection of gene expression: After the incubation was finished, PBS cleaning was performed twice with 1 mL/well, each well was added with 1 mL of RNAiso Plus, to pipet and lyse the cells, after which samples were collected. RNA was extracted and subjected to reverse transcription to cDNA to undergo fluorescence quantitative PCR detection, and result was calculated by the […] method.
as §2

p21 gene = experiment: UVA-irradiated fibroblasts, special dosing: p21 PCR; format: cell-based; conditions: 10 mg/mL
Experimental: as §1, §3, §4, §2

p16 gene = experiment: UVA-irradiated fibroblasts, special dosing: p16 PCR; format: cell-based; conditions: 10 mg/mL
Experimental: as §1, §3, §4, §2

PGE2 = experiment: Keratinocyte-based inflammatory factor test (UVB), PGE2 ELISA; format: cell-based; conditions: keratinocytes, dosed 24 h, UVB 300 mJ/cm^2, 24 h, BC 165.31, NC 492.42, dexamethasone 0.01%, Filtrate 0.3125%, Lysate 1%, Filtrate + lysate 0.0781%, Centella asiatica 0.625 mg/mL
Experimental: (§5) Cell inoculation: After resuscitation of cells, when a plating rate reached about 60%, the cells were inoculated in 6-well plates, and incubated overnight in a CO2 incubator (37° C., 5% CO2).
(§6) Dosing: According to test groups in TABLE 19, when the plating rate of the cells in the 6-well plates reached about 30%˜50%, dosing was performed for the groups respectively, with each group in triplicate. The blank control group and the negative control group were added with 2 mL of a culture solution per well, the positive control group was added with 2 mL of a dexamethasone-containing culture solution per well, and the sample group was added with 2 mL of a test sample-containing culture solution at corresponding concentration per well. After the dosing was completed, the 6-well plates were cultured in the CO2 incubator (37° C., 5% CO2) for 24 h.
UVB irradiation: after the cells are cleaned in PBS, according to the test groups, remaining groups other than the blank control group were all subjected to UVB irradiation, with an irradiation dosage of 300 mJ/cm^2. […]
(§7) Statistical analysis of results: GraphPad Prism was applied for plotting, and results were expressed as Mean±SD. Comparison between the groups was statistically analyzed using t-test. […]

IL-6 = experiment: Macrophage-based inflammatory factor test (LPS), IL-6 ELISA; format: cell-based; conditions: macrophages, dosed 2 h, then LPS 22 h, BC 0.50, NC 2224.08, dexamethasone 0.01%, Filtrate 0.5%, CLR bifida ferment lysate 1%
Experimental: (§8) <1> Formulation of working solution of positive control group (dexamethason): 2 μL of 10% mother liquor was sucked and dissolved in 2 mL of the culture solution to formulate 0.01% dexamethasone.
(§9) <2> Formulation of 1 μg/mL LPS-containing working solution: 2 mg/mL LPS stock solution was diluted to 1 μg/mL with the test-substance working solution remaining, negative control working solution and positive control working solution, respectively, after the dosing.
(§10) <1> Cell inoculation: the cells were inoculated in 6-well plates at an inoculation density of 2.2×10^5 per well, 2 mL of a cell suspension was added to each well, the inoculated cell culture plates continued to be cultured in the incubator for 24 h (5% CO2, 37° C.).
(§11) <2> Original cell culture solution in the wells was sucked out and discarded. The sample group was added with 1.8 mL of the test substance-containing culture solution at a corresponding concentration per well; the negative control group was added with 1.8 mL of a solvent control culture solution per well; the positive control group was added with 1.8 mL of a positive control culture solution per well; and the blank control group was added with 1.8 mL of a normal culture solution per well.
(§12) <3> After the dosing was completed, the 6-well plates were cultured in a cell incubator (5% CO2, 37° C.) for 2 h. […]

IL-1β = experiment: Macrophage-based inflammatory factor test (LPS), IL-1β ELISA; format: cell-based; conditions: macrophages, dosed 2 h, then LPS 22 h, BC 2.83, NC 76.40, dexamethasone 0.01%, Filtrate 0.5%, CLR bifida ferment lysate 1%
Experimental: as §8, §9, §10, §11, §12

Keratinocyte = experiment: Cell scratch test, keratinocyte cell mobility; format: cell-based; conditions: Filtrate 0.3125%, Lysate 0.5%, Filtrate + lysate 0.0781%, Madecassoside 0.625 mg/mL, B5 1.25 mg/mL
Text: Cell migration capability is an important capability of repairing after tissue damage. After the tissue damage, the body will initiate repair of a damaged part, including enhancement of longitudinal cell proliferation capability and lateral crawling and migration of cells in surrounding parts of the damage to the damaged part. Cells cover the damaged part by crawling and migration.
as §5
as §6, with “9,” for “19,”, “70%˜80%,” for “30%˜50%,”, “was” for “and the negative control group were”, “an EGF-containing” for “a dexamethasone-containing”, “continued to be” for “were”, “h. […]” for “h.”
Statistical analysis of results: GraphPad Prism was applied for plotting, and results were expressed as Mean±sD. Comparison between the groups was statistically analyzed using t-test. […]

Claudin-1 gene = experiment: Keratinocyte gene expression PCR: Claudin-1; format: cell-based, human; conditions: keratinocytes (HaCaT), 24 h, 2^−ΔΔCT, BC=1.00; PC VE 0.05%, Filtrate 0.3125%, Lysate 0.5%, Filtrate + lysate 0.0781%, Madecassoside 0.625 mg/mL, CLR lactic acid bacteria 0.5%
Experimental: Cell inoculation: After resuscitation of the cells, when the plating rate reached about 60%, the cells were inoculated in the 6-well plates, and incubated overnight in the CO2 incubator (37° C., 5% CO2).
Dosing: According to test groups in TABLE 11 to TABLE 17, when the plating rate of the cells in the 6-well plates reached about 40%˜60%, dosing was performed for the groups respectively, with each group in triplicate. The blank control group was added with 2 mL of the culture solution per well, the positive control group was added with 2 mL of a VE-containing culture solution per well, and the sample group was added with 2 mL of the test sample-containing culture solution at a corresponding concentration per well. After the dosing was completed, the 6-well plates were cultured in the CO2 incubator (37° C., 5% CO2) for 24 h. […]
Detection of gene expression: RNA was extracted and subjected to reverse transcription to cDNA to undergo fluorescence quantitative PCR detection, and result was calculated by a 2^−ΔΔCT method.
as §7

[1] = test system: 3D epidermal skin model (EpiKutis®); experiment: SLS-stimulated 3D epidermal skin model (EpiKutis), tissue morphology H&E; format: cell-based; conditions: 0.1% SLS 30 min, then 24 h, filtrate 5%, lysate 5%, combination 5%, madecassoside 0.625 mg/mL, PC WY14643, FIG. 19
Text: Tissue morphology: Tissue morphology is microscopic physiological structure analysis of tissues after HE staining. Through the tissue morphology of the model, changes in the skin barrier under different treatment conditions can be seen, for example, after SLS damage, the skin barrier becomes loose, thickness of a living cell layer decreases, and such damage can be ameliorated after treatment with active substances.
1) Formulation of 0.1% SLS working solution: 0.006 g of SLS was weighed and dissolved in 6 mL of a PBS solution, filtered by 0.22 μm, and formulated into the 0.1% SLS working solution for later use.
2) Formulation of working solution of positive control group (50 μM WY14643): 10 μL of 30 mM WY14643 mother liquor was sucked and dissolved in 6 mL of the culture solution to be formulated into 50 μM WY14643. […]
The models for detection of tissue morphology were fixed using 4% paraformaldehyde. After 24 h of fixation, H&E staining detection was performed, photographs were taken under a microscope and observed, and pictures were collected and analyzed.
as §7

## CC(O)C[C@@H]1OC[C@@H](O)[C@H](O)[C@H]1O (some centres unmarked) [Pro-xylane]
MMP-1
  MMP1 Down-regulation Rate (vs NC): 17.94%
MMP-1; fibroblasts, UVA 30 J/cm^2 then dosing 24 h, repeated 3 times, ELISA, BC 359379.29, NC 1075513.35, PC TGFβ1 100 ng/mL
  MMP1 Mean Concentration: 882584.62 pg/mL
NF-κB gene
  NF-κB gene expression, Inhibition Rate (vs NC): 65.13%
NF-κB gene; fibroblasts, UVA 30 J/cm^2 then dosing 24 h, repeated 3 times, BC 1.00, NC 1.52, PC TGFβ1 100 ng/mL
  NF-κB gene expression, Mean: 0.53
p21 gene
  p21 gene expression, Mean: 1.88
p16 gene
  p16 Down-regulation Rate (vs NC): 35.37%
  p16 gene expression, Mean: 1.06

## C[C@@H]1C[C@H]2[C@@H]3CCC4=CC(=O)C=C[C@]4(C)[C@@]3(F)[C@@H](O)C[C@]2(C)[C@@]1(O)C(=O)CO [dexamethasone]
PGE2
  PGE2 Mean Concentration: 159.23 pg/mL
IL-6
  IL-6 Mean Concentration: 193.04 pg/mL
IL-1β
  IL-1β Mean Concentration: 8.51 pg/mL

## Madecassoside
Keratinocyte; keratinocytes, dosed 24 h, 24 h after scratching, BC=1.00, PC EGF 1 ng/mL
  Relative Mobility Mean: 1.02
Keratinocyte; vs BC
  Relative mobility, Increase Rate: 2.00%
Claudin-1 gene
  Claudin-1 gene expression, Mean: 0.96
[1]
  Tissue morphology (H&E) compared with the NC group: the phenomenon of living cell damage is obviously ameliorated
